Experimental data from US20080031866A1, “METHOD FOR MODULATING THE PHARMACOKINETICS AND METABOLISM OF A THERAPEUTIC AGENT” (priority 2006, published 2008).

Experiments:
[1] = IV pharmacokinetics of Compound 1 and its glucuronides in rats; assay type: in vivo, rat; settings: Sprague Dawley, rat, plasma, Compound 1 2 mg/kg IV
Protocol: (§1) Two separate IV studies were carried out using two separate lots of animals. IV-A was run on the same lot of animals as the oral gavage study and IV-B was run on the same lot of animals as the intraduodenal and intra-colonic studies.
For the IV dosing solutions (IV), Compound 1 was prepared by addition to DI water containing 20% hydroxypropyl β-cyclodextran by weight.
(§2) For the IV and oral gavage dosing (sampling at jugular and portal vein), young adult male Sprague Dawley rats weighing 250-400 g were purchased from Hilltop Lab Animals Inc. All rat experiments were conducted under approved animal protocols. The rats for the oral gavage dosing were catheterized at Hilltop Lab Animals Inc, had two chronic catheters for sampling: jugular and portal, were housed in cages of Culex™ Automated Blood Sampler (ABS) and blood samples were collected simultaneously via both cannula and were controlled by the Culex™ ABS control software.
(§3) A quantitative method for determining the amount of (6,7-dimethoxy-2,4-dihydro-indeno[1,2-c]pyrazol-3-yl)-(3-fluoro-phenyl)-amine Compound 1 and its major metabolites, glucuronide A (Cpd 1-GluA) and glucuronide B (Cpd 1-GluB) (see Scheme A) in rat plasma was developed using phenacetin as an internal standard. [drawing 1]
(§4) The two glucuronide conjugates were prepared and purified to permit accurate quantification of the levels of intact parent Compound 1 versus Cpd 1-GluA and Cpd 1-GluB. Each standard curve for Compound 1, Cpd 1-GluA, and Cpd 1-GluB generated from rat plasma included ten concentration levels. […] The quantitative procedure for each sample included: sample preparation, HPLC separation and mass spectrometry detection.
(§5) The rat plasma was prepared using protein precipitation techniques. Reference standards and quality control samples in rat plasma for Compound 1 were transferred to a 96 deep-well plate. The precipitation solution contained 100 ng/ml of internal standard in acetonitrile. 300 μl of precipitation solution were added to 100 μl of each standard, quality control and plasma sample. Samples were vortexed for 10 mins, then centrifuged at 4500 RPM for 10 mins. 10 μl of each sample were injected for LC/MS/MS analysis.
(§6) The HPLC column chosen for the bioanalysis was purchased from Thermo Electron (Hypersil BetaBasic C18, 5 cm×2.1 mm). The eluting solvents were composed of Solvent A: 0.1% formic acid in H2O and Solvent B: 0.1% formic acid in acetonitrile. A step gradient was used and flow rate was 300 μl/min. The total run time was 3.2 mins. Solvent B was increased from 35% at 0 min to 75% at 2.1 mins and decreased back to 35% at 2.2 mins. The retention times for Compound 1, phenacetin, Cpd 1-GluA and Cpd 1-GluB were 1.1 min, 0.9 min, 1.3 min, and 1.6 min, respectively.
API3000 with a Turbo Ionspray interface from Applied Biosystems was used for the detection of Compound 1, the internal standard and major metabolites. Electrospray ionization was performed in the positive ion mode heated nebulizer with a temperature of 300° C. LC/MS/MS chromatograms were acquired in MRM (multiple reaction mode). The MRM transitions for Compound 1, the internal standard, Cpd 1-GluA and Cpd 1-GluB were from 326.3 to 190.6, 181.1 to 110.3, 502.2 to 368.3 and 502.2 to 326.4, respectively.
Pharmacokinetic analysis of the plasma concentration data was performed to determine the maximum plasma concentration (Cmax) for the oral dose, and the concentration at zero time (C0; Compound 1 only) by the extrapolation of drug concentrations back to the time of i.v. dosing, the time to maximum plasma concentration (Tmax) following the oral dose, area under the plasma concentration vs. time curve (AUC), terminal half-life (t1/2), plasma clearance (CL/F; Compound 1 only), and volume of distribution at steady state (Vdss; Compound 1 only) for the i.v. dose, using the WinNonlin (Version 3.1, Pharsight, Palo Alto, Calif.) validated computer program.

[2] = Oral gavage pharmacokinetics, jugular and portal vein sampling, first pass metabolism; assay type: in vivo, rat; settings: for AUC: po, 75 mg/kg; for AUC / concentration at 0 h / concentration at 0.08 h / concentration at 0.25 h / concentration at 0.33 h / concentration at 0.5 h / concentration at 0.67 h / concentration at 1 h / concentration at 1.25 h / concentration at 1.5 h / concentration at 2 h / concentration at 3 h / concentration at 4 h / concentration at 6 h / concentration at 12 h / concentration at 24 h / Cmax: rats N=4; for Cmax: read-out: Cmax average ± standard deviation
Protocol: as §1
For the oral gavage dosing, Compound 1 was prepared in neat PEG-400. For the intraduodenal and intracolonic dosing solutions, Compound 1 was added to neat Tween 80, the mixture was sonicated for thirty minutes at 45° C. until Compound 1 was completely dissolved and then deionized (DI) water was added to form a solution consisting of 20% Tween 80 and 80% DI water by weight.
as §2, §3, §4, §5, §6
API3000 with a Turbo Ionspray interface from Applied Biosystems was used for the detection of Compound 1, the internal standard and major metabolites. Electrospray ionization was performed in the positive ion mode heated nebulizer with a temperature of 300° C. LC/MS/MS chromatograms were acquired in MRM (multiple reaction mode). The MRM transitions for Compound 1, the internal standard, Cpd 1-GluA and Cpd 1-GluB were from 326.3 to 190.6, 181.1 to 110.3, 502.2 to 368.3 and 502.2 to 326.4, respectively. […]

[3] = male, Sprague Dawley, rat, plasma (jugular vein sample), Compound 1 75 mg/kg oral gavage, jugular sample
[4] = male, Sprague Dawley, rat, plasma (portal vein sample), Compound 1 75 mg/kg oral gavage, portal sample
[5] = male, Sprague Dawley, rat, portal vein plasma, Compound 1 75 mg/kg oral gavage, portal sample

In the case of COc1cc2c(cc1OC)-c1nn(C3OC(C(=O)O)C(O)C(O)C3O)c(Nc3cccc(F)c3)c1C2 (stereo in doubt) [Cpd 1-GluB], the AUC ([1]; male rats N=4, read-out: AUC average ± standard deviation) is reported as 103 ± 47 ng·h/mL, the Cmax ([1]; male rats N=4, read-out: Cmax average ± standard deviation) is reported as 28 ± 3 ng/mL and the concentration at 0 h ([1]; male rats N=4, retro orbital sinus, 0 hrs) is reported as 0 ng/mL. It also gave a concentration at 0.08 h ([1]; male rats N=4, retro orbital sinus, 0.08 hrs) of 21.2 ng/mL, a concentration at 0.33 h ([1]; male rats N=4, retro orbital sinus, 0.33 hrs) of 28.4 ng/mL and a concentration at 1 h ([1]; male rats N=4, retro orbital sinus, 1 hr) of 17.8 ng/mL. It also gave a concentration at 2 h ([1]; male rats N=4, retro orbital sinus, 2 hrs) of 5.5 ng/mL, a concentration at 4 h ([1]; male rats N=4, retro orbital sinus, 4 hrs) of 0 ng/mL and a concentration at 8 h ([1]; male rats N=4, retro orbital sinus, 8 hrs) of 0 ng/mL. The concentration at 24 h ([1]; male rats N=4, retro orbital sinus, 24 hrs) was 0 ng/mL, the Tmax ([1]; male rats) was 18 min and the “Ratio of metabolite to Compound 1” value ([2]; jugular vein, oral gavage) was 1. The AUC ([2]; male, Sprague Dawley, rat, plasma (jugular vein sample), Compound 1 75 mg/kg oral gavage, jugular sample, read-out: AUC average ± standard deviation 0 to 24 hours) was 1710 ng·h/mL, the AUC ([2]; male, Sprague Dawley, rat, plasma (jugular vein sample), Compound 1 75 mg/kg oral gavage, jugular sample, read-out: AUC average ± standard deviation 0 to infinite hours) was 2180 ng·h/mL and the concentration at 0 h [2, 3] was 0 ng/mL. The concentration at 0.08 h [2, 3] was 37.8 ng/mL, the concentration at 0.25 h [2, 3] was 169 ng/mL and the concentration at 0.33 h [2, 3] was 233 ng/mL. It also gave a concentration at 0.5 h [2, 3] of 223 ng/mL, a concentration at 0.67 h [2, 3] of 244 ng/mL and a concentration at 1 h [2, 3] of 230 ng/mL. For the same compound, the concentration at 1.25 h [2, 3] was 178 ng/mL, the concentration at 1.5 h [2, 3] was 169 ng/mL and the concentration at 2 h [2, 3] was 141 ng/mL. It also gave a concentration at 3 h [2, 3] of 90 ng/mL, a concentration at 4 h [2, 3] of 51.4 ng/mL and a concentration at 6 h [2, 3] of 71.3 ng/mL. The concentration at 12 h [2, 3] was 86.5 ng/mL, the concentration at 24 h [2, 3] was 29 ng/mL and the Cmax [2, 3] was 268 ± 52 ng/mL. The concentration at 0.67 h [2, 4] was 290 ng/mL, the concentration at 1 h [2, 4] was 164 ng/mL and the concentration at 1.25 h [2, 4] was 183 ng/mL. It also gave a concentration at 1.5 h [2, 4] of 151 ng/mL, a concentration at 2 h [2, 4] of 142 ng/mL and a concentration at 3 h [2, 4] of 105 ng/mL. For the same compound, the concentration at 4 h [2, 4] was 79.5 ng/mL, the concentration at 6 h [2, 4] was 120 ng/mL and the concentration at 12 h [2, 4] was 87.2 ng/mL. For the same compound, the Tmax ([2]; male, Sprague Dawley, rat, plasma, rats, Compound 1 75 mg/kg oral gavage) was 30 min, the AUC ([2]; male, Sprague Dawley, rat, portal vein plasma, Compound 1 75 mg/kg oral gavage, portal sample, read-out: AUC average ± standard deviation 0 to 24 hours) was 1960 ng·h/mL and the AUC ([2]; male, Sprague Dawley, rat, portal vein plasma, Compound 1 75 mg/kg oral gavage, portal sample, read-out: AUC average ± standard deviation 0 to infinite hours) was 2490 ng·h/mL. The concentration at 0 h [2, 5] was 0 ng/mL, the concentration at 0.08 h [2, 5] was 82.8 ng/mL and the concentration at 0.25 h [2, 5] was 215 ng/mL. It also gave a concentration at 0.33 h [2, 5] of 263 ng/mL, a concentration at 0.5 h [2, 5] of 192 ng/mL and a concentration at 24 h [2, 5] of 39.9 ng/mL. For the same compound, the Cmax [2, 5] was 324 ± 129 ng/mL and the “Mean ratio of metabolite to Compound 1” value ([2]; portal system, oral gavage) was 0.2.
